Results as given in paper PMC7012012, “Bioassay-guided isolation, identification of compounds from Origanum rotundifolium and investigation of their antiproliferative and antioxidant activities” (Pharmaceutical Biology, 2017).
Where “and” joins values, the source holds several entries; their conditions need not be identical. Identical values can stand only once.

Tests used:
[1] = DPPH free radical scavenging assay; settings: 30 min, absorbance 517 nm
Experimental: The free radical scavenging activities of extracts and standards were evaluated by 2,2-diphenyl-1-picrylhydrazil (DPPH^•) (Blois [1958]). To a different concentration of 3.0 mL of extract (3.0–20 μg/mL) in ethanol, DPPH^• solution (1.0 mL, 0.26 mM) were added. After that it is stirred and kept at Rt for 30 min, The absorbance of the mixture was executed at 517 nm in a spectrophotometer. The activity was calculated by the below equation. DPPH• scavenging effect %=Ac-As/Ac×100
In which, Ac and As are the control and sample absorbance, respectively.

[2] = ABTS radical cation scavenging assay; settings: 30 min, absorbance 734 nm; unit printed only in abstract
Experimental: 2,2″-Azino-bis (3-ethylbenzthiazoline-6-sulfonic acid) (ABTS) cation radical scavenging assay based on the decreasing ABTS radical cation, a blue/green chromophore with absorption at […], in comparison to that of BHA, BHT and Trolox. This method was executed as in the literature (Re et al. [1999]). Treatment of ABTS (2.0 mM) in phosphate buffer (0.1 M, pH 7.4) with potassium persulfate (K2S2O8) (2.45 mM) gave the ABTS^•+, kept at dark at Rt for 4 h. Initially, dilution of ABTS^•+ was performed with sodium phosphate buffer (pH 7.4, 0.1 M) to obtain absorbance 0.750 ± 0.025 at 734 nm. After all, ABTS^•+ solution (1.0 mL) was added to each extract solution in ethanol (3.0 mL) at different concentration (2.5–20 μg/mL). After 30 min, the inhibition was calculated for each concentration relative to a blank absorbance. The scavenging ability of ABTS^•+ was calculated by given equation:
ABTS^•+scavenging activity (%)=[(Ac – As)/Ac]*100 in which, Ac is the initial concentration of ABTS^•+ and As is the absorbance of the remaining concentration of ABTS^•+ in the samples.

[3] = Ferric ions (Fe3+) reducing antioxidant power assay (FRAP); settings: 10 μg/mL
Experimental: Different concentrations of samples (5–40 μg/mL) in 1 mL of deionized water were mixed with sodium phosphate buffer (1.25 mL, 0.2 M, pH 6.6) and potassium ferricyanide [K3Fe(CN)6] (1.25 mL, 1%). After the incubation of the mixture at 50 °C for 20 min, trichloroacetic acid (1.25 mL, 10%) and FeCl3 (0.25 mL, 0.1%) were added to the reaction medium. The reaction mixture was vortexed thoroughly and absorbance measurement at 700 nm was executed in a spectrophotometer.

[4] = system: HeLa (human cervix carcinoma) cell lines; assay: BrdU cell proliferation ELISA, HeLa; type: cell-based; settings: for IC50: BrdU ELISA; for Tumour specificity HeLa: HeLa relative to Vero
Experimental: (§1) Anticancer potential of isolated compounds was investigated on C6, HT29, HeLa and Vero cell lines. These cells were sustained with Dulbecco’s modified eagle’s medium, complemented with foetal bovine serum and PenStep solution (ATCC, American Type Culture Collection). The old medium was aspirated out of the plate while cells had reached a confluence of 80% then cells were removed from the flasks using trypsin-EDTA (4 mL) and centrifuged. Afterward, cell pellet was suspended with DMEM and was counted to gain a final concentration as 5 × 10^4 cells/mL, inoculated into wells (100 μL cells/well).
(§2) The antiproliferative activity of compounds against various cell lines (C6, HeLa and Vero cells) was tested by cell proliferation assay using BrdU Cell Proliferation ELISA kit. A cell suspension containing nearly 5 × 10^3 cells in 100 μL was conveyed into the well cell plates (96-well cell). The treatments of cells with compounds in DMSO and 5-Florouracil (5 FU) in DMSO separately at concentration 5–100 μg/mL were carried out. The last volume of the wells was adapted to 200 μL by DMEM and mixture was incubated at 37 °C with 5% CO2 for overnight (Okten et al. [2013]).
(§3) The half inhibitory concentration of the isolated compounds and standards was calculated by XLfit5 software (IDBS) and explicated in μM at 95% confidence levels (Table 1). The proliferation results were recorded as the per cent inhibition of the compounds and control substances. The following formula was used for the calculation of inhibition % Inhibition = [Asample– Acontrol/Acontrol]×100
(§4) where Asample is the absorbance of the compounds and Acontrol is the absorbance of the DMSO.

[5] = system: HT29 (human colon carcinoma) cell lines; assay: BrdU cell proliferation ELISA, HT29; type: cell-based; settings: for Tumour specificity HT29: HT29 relative to Vero
Experimental: as §1, §2, §3, §4

[6] = system: C6 (rat brain tumour) cell lines; assay: BrdU cell proliferation ELISA, C6; type: cell-based; settings: for Antiproliferative activity on C6 (in words): C6, 5-100 μg/mL; for IC50: C6, BrdU ELISA; for Tumour specificity C6: C6 relative to Vero
Experimental: as §1, §2, §3, §4

[7] = system: Vero (African green monkey kidney epithelium) cells; assay: BrdU cell proliferation ELISA, Vero; type: cell-based; settings: for Antiproliferative activity on Vero (in words): 5-100 μg/mL; for IC50: BrdU ELISA
Experimental: as §1, §2, §3, §4

[8] = Homo sapiens, HT-29, HT29, BrdU ELISA

Compound	IC50 [1] [µM]	ABTS radical cation scavenging IC50 [2]	Reducing power (absorbance at 700 nm) [3]	Antiproliferative activity on HeLa (in words) ([4]; HeLa, 5-100 μg/mL)	Antiproliferative activity on HT29 (in words) ([5]; HT29, 5-100 μg/mL)	Antiproliferative activity on C6 (in words) [6]	Antiproliferative activity on Vero (in words) [7]	IC50 ([4]; HeLa) [µM]	IC50 ([4]; Homo sapiens, HeLa) [µM]	IC50 ([5]; HT29, BrdU ELISA) [µM]	IC50 [5, 8] [µM]	IC50 [6] [µM]	IC50 ([6]; Rattus norvegicus) [µM]	Tumour specificity HeLa [4]	Tumour specificity HT29 [5]	Tumour specificity C6 [6]	IC50 ([7]; Chlorocebus sabaeus) [µM]	IC50 [7] [µM]	IC50 ([6]; listed as cisplatin) [µM]
O=c1cc(-c2ccc(O)cc2)oc2cc(O)cc(O)c12 [Compound 1, Apigenin]	173	8.9 µg/mL	0.14	did not reveal the noticeable activity	has not a noteworthy effect	Noticeable effect has not been detected	did not reveal the remarkable activity												
O=C(OC(Cc1ccc(O)c(O)c1)C(=O)O)c1cc(-c2ccc(O)c(O)c2)c2cc(O)c(O)cc2c1 (centres unmarked) [Compound 6, globoidnan A]	22.4	4.6 µg/mL	1.25				did not reveal the remarkable activity	140	140	136	136	169	169						
O=C(/C=C/c1ccc(O)c(O)c1)O[C@H](Cc1ccc(O)c(O)c1)C(=O)O [Compound 5, rosmarinic acid]	47.2	14.2 µg/mL	0.60				good effect		233	262	262	251	252	1.19	1.07	1.11	279		
Cc1cc(C(C)(C)C)c(O)c(C(C)(C)C)c1 [BHT, Butylated hydroxytoluene, reference compound]	196	5.0 µg/mL	0.81																
vitexin [Compound 3]	31.4	3.6 µg/mL and 3.7 µg/mL	0.27				effective at high concentrations	35.6		32.5		41.6		1.31	1.43	1.12		46.7	
N.N.[Cl][Pt][Cl] [Cisplatin, reference compound]								44.2		48.6		61.5		0.92	0.84	0.66		40.8	61.5
COc1ccc(O)c(C(C)(C)C)c1 [BHA, butylated hydroxyanisole, reference compound]	12.9	7.6 µg/mL	1.12																
caprolactam [Compound 4]	329	61.5 µg/mL	0.08			Noticeable effect has not been detected	did not reveal the remarkable activity												
Cc1c(C)c2c(c(C)c1O)CCC(C)(C(=O)O)O2 (centres unmarked) [Trolox, reference compound]		13.8 µg/mL	0.61																
